# From PubChem BioAssay (NCI)
#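 These data come from cells grown in 96-well plates and exposed to compound for 48 hours at five concentrations. Abbreviation: GI50, concentration required for 50% inhibition of growth. Definition used: TGI = concentration required for complete inhibition of growth.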
# What was measured:
# Experiment in all cases: NCI anticancer screen, dose series, 48 h
# [1] = test system: 786-0 renal
# [2] = test system: A498 renal
# [3] = test system: A549 NSCLC
# [4] = test system: ACHN renal
# [5] = test system: BT-549 breast
# [6] = test system: CAKI-1 renal
# [7] = test system: CCRF-CEM leukemia
# [8] = test system: COLO 205 colon
# [9] = test system: DU-145 prostate
# [10] = test system: EKVX NSCLC
# [11] = test system: HCC-2998 colon
# [12] = test system: HCT-116 colon
# [13] = test system: HCT-15 colon
# [14] = test system: HL-60(TB) leukemia
# [15] = test system: HOP-62 NSCLC
# [16] = test system: HOP-92 NSCLC
# [17] = test system: HS 578T breast
# [18] = test system: HT29 colon
# [19] = test system: IGROV1 ovarian
# [20] = test system: K-562 leukemia
# [21] = test system: KM12 colon
# [22] = test system: LOX IMVI melanoma
# [23] = test system: M14 melanoma
# [24] = test system: MALME-3M melanoma
# [25] = test system: MCF7 breast
# [26] = test system: MDA-MB-231 breast
# [27] = test system: MDA-MB-435
# [28] = test system: MOLT-4 leukemia
# [29] = test system: NCI-H226 lung
# [30] = test system: NCI-H23 lung
# [31] = test system: NCI-H460 lung
# [32] = test system: NCI-H522 lung
# [33] = test system: NCI/ADR-RES ovarian
# [34] = test system: OVCAR-3 ovarian
# [35] = test system: OVCAR-4 ovarian
# [36] = test system: OVCAR-5 ovarian
# [37] = test system: OVCAR-8 ovarian
# [38] = test system: PC-3 prostate
# [39] = test system: RPMI-8226 leukemia
# [40] = test system: RXF 393 renal
# [41] = test system: SF-268 CNS
# [42] = test system: SF-295 CNS
# [43] = test system: SF-539 CNS
# [44] = test system: SK-MEL-2 melanoma
# [45] = test system: SK-MEL-28 melanoma
# [46] = test system: SK-MEL-5 melanoma
# [47] = test system: SK-OV-3 ovarian
# [48] = test system: SN12C renal
# [49] = test system: SNB-19 CNS
# [50] = test system: SNB-75 CNS
# [51] = test system: SR leukemia
# [52] = test system: SW-620 colon
# [53] = test system: T-47D breast
# [54] = test system: TK-10 renal
# [55] = test system: U251 CNS
# [56] = test system: UACC-257 melanoma
# [57] = test system: UACC-62 melanoma
# [58] = test system: UO-31 renal
structure (smiles),measurement,setting,value
COc1ccc(C(=O)c2cc(OC)c3c(c2)OCO3)cc1O,GI50,[1],933 nM
same,TGI,[1],> 100000 nM
same,GI50,[2],2340 nM
same,TGI,[2],7500 nM
same,GI50,[3],614 nM
same,TGI,[3],> 100000 nM
same,GI50,[4],1570 nM
same,TGI,[4],> 100000 nM
same,GI50,[5],3060 nM
same,TGI,[5],> 100000 nM
same,GI50,[6],1410 nM
same,TGI,[6],> 100000 nM
same,GI50,[7],298 nM
same,TGI,[7],> 100000 nM
same,GI50,[8],7510 nM
same,TGI,[8],21000 nM
same,GI50,[9],340 nM
same,TGI,[9],3520 nM
same,GI50,[10],19800 nM
same,TGI,[10],> 100000 nM
same,GI50,[11],1720 nM
same,TGI,[11],> 31500 nM
same,GI50,[12],345 nM
same,TGI,[12],9190 nM
same,GI50,[13],112 nM
same,TGI,[13],> 100000 nM
same,GI50,[14],119 nM
same,TGI,[14],2240 nM
same,GI50,[15],383 nM
same,TGI,[15],> 54200 nM
same,GI50,[16],824 nM
same,TGI,[16],52700 nM
same,GI50,[17],190 nM
same,TGI,[17],> 32100 nM
same,GI50,[18],3180 nM
same,TGI,[18],> 57200 nM
same,GI50,[19],1180 nM
same,TGI,[19],> 100000 nM
same,GI50,[20],45.9 nM
same,TGI,[20],> 100000 nM
same,GI50,[21],50.5 nM
same,TGI,[21],2640 nM
same,GI50,[22],180 nM
same,TGI,[22],> 100000 nM
same,GI50,[23],47.3 nM
same,TGI,[23],5220 nM
same,GI50,[24],6720 nM
same,TGI,[24],> 100000 nM
same,GI50,[25],332 nM
same,TGI,[25],64000 nM
same,GI50,[26],572 nM
same,TGI,[26],> 100000 nM
same,GI50,[27],22.1 nM
same,TGI,[27],60.3 nM
same,GI50,[28],617 nM
same,TGI,[28],> 100000 nM
same,GI50,[29],2490 nM
same,TGI,[29],8810 nM
same,GI50,[30],248 nM
same,TGI,[30],> 24800 nM
same,GI50,[31],299 nM
same,TGI,[31],9450 nM
same,GI50,[32],25.9 nM
same,TGI,[32],105 nM
same,GI50,[33],43.6 nM
same,GI50,[34],213 nM
same,TGI,[34],481 nM
same,GI50,[35],1720 nM
same,TGI,[35],> 100000 nM
same,GI50,[36],4490 nM
same,TGI,[36],> 100000 nM
same,GI50,[37],387 nM
same,TGI,[37],> 100000 nM
same,GI50,[38],908 nM
same,TGI,[38],> 100000 nM
same,GI50,[39],309 nM
same,TGI,[39],> 44000 nM
same,GI50,[40],215 nM
same,TGI,[40],674 nM
same,GI50,[41],287 nM
same,TGI,[41],16100 nM
same,GI50,[42],832 nM
same,TGI,[42],> 100000 nM
same,GI50,[43],199 nM
same,TGI,[43],3070 nM
same,GI50,[44],346 nM
same,TGI,[44],34400 nM
same,GI50,[45],457 nM
same,TGI,[45],> 100000 nM
same,GI50,[46],261 nM
same,TGI,[46],1710 nM
same,GI50,[47],200 nM
same,TGI,[47],1580 nM
same,GI50,[48],1090 nM
same,TGI,[48],> 100000 nM
same,GI50,[49],377 nM
same,TGI,[49],> 100000 nM
same,GI50,[50],166 nM
same,TGI,[50],34600 nM
same,GI50,[51],42.3 nM
same,TGI,[51],> 100000 nM
same,GI50,[52],57.7 nM
same,TGI,[52],> 100000 nM
same,GI50,[53],883 nM
same,TGI,[53],> 100000 nM
same,GI50,[54],5700 nM
same,TGI,[54],99400 nM
same,GI50,[55],315 nM
same,TGI,[55],> 100000 nM
same,GI50,[56],1130 nM
same,TGI,[56],> 79500 nM
same,GI50,[57],946 nM
same,TGI,[57],> 100000 nM
same,GI50,[58],3640 nM
same,TGI,[58],> 100000 nM
